Laboratory results taken from US20220364056A1, “SHORT-CHAIN FATTY ACID PENTANOATE AS ENHANCER FOR CELLULAR THERAPY AND ANTI-TUMOR THERAPY” (PHILIPPS-UNIVERSITÄT MARBURG, priority 2019, published 2022).

Key:
[1] = tested on: ROR1-expressing Panc02 pancreatic tumor cells (PancROR1); assay: transfer of pretreated ROR1-specific CAR T cells into mice bearing s.c. PancROR1 tumors; assay type: in vivo
HDAC = assay: fluorogenic HDAC assay on CTL-derived cell lysates; assay type: biochemical, murine; details: unstimulated CTLs set to 1.0
Procedure: (§1) (A) Experimental design for the treatment of CTLs with the water-soluble fraction of intestinal content derived from SPF or GF mice. (B and C) Frequencies of IFN-γ- and TNF-α-producing CTLs treated with the extract from luminal content derived from indicated organs. Representative results of two experiments are shown (n=3). (D) ELISA was performed to measure the secretion of TNF-α by CLTs treated as shown in (A). (E) Quantitative measurement of total SCFA amounts in fecal samples of SPF and GF mice (n=5). (F and G) The percentage of IFN-γ^+ TNF-α^+ CTLs treated with the indicated SCFAs for three days (n=3, one of three independent experiments is shown). (H) The secretion of TNF-α from CTLs treated with SCFAs was determined by ELISA (n=3, one of two independent experiments is shown). (I) The fluorogenic HDAC assay was applied to measure the HDAC inhibitory activity of SCFAs on CTLs. The value for unstimulated CTLs was arbitrarily set to 1.0. Four independent experiments were performed. (J and K) Representative contour plots (J) and bar graphs (K) showing the frequency of IFN-γ+ and TNF-α+ cells after pentanoate (2 mM) or VPA (0.5 mM) administration. Three similar experiments were performed. (L and M) The frequency of Eomes- and T-bet-expressing CTLs treated with pentanoate (2 mM) or VPA (0.5 mM) for three days was analyzed by flow cytometry (n=4). […]

[2] = tested on: murine ROR1-recognizing CAR T lymphocytes; assay: murine ROR1-specific CAR T cells stimulated with HDACi, ELISA and flow cytometry; assay type: cell-based; details: three days of stimulation
Procedure: (A) Experimental design for the analysis HDACi-treated ROR1-specific CD8^+ CAR T cells (CARROR1+HDAC). (B and C) The production of TNF-α and IFN-γ from CAR T cells was measured by ELISA and flow cytometry analysis after three days of stimulation with the indicated HDACi. (D) The surface expression of CD25 on CAR T cells was measured by flow cytometry analysis after three days of stimulation with the indicated HDACi (n=3 combined from 3 independent experiments). (E and F) After three days of pre-treatment with pentanoate, CD19t^+ ROR1-specific CAR T cells were transferred intraperitoneally (i.p) into mice bearing 5-days old PancROR1 tumors. In E, Tumor volume and tumor mass were analyzed (n=3 mice/group/experiment combined from 2 independent experiments). (F) The percentage and total cell number of transferred TNF-α and IFN-γ CD19t^+ ROR1-specific CART cells in the tumor tissue at day 14 after tumor inoculation are shown.

[3] = tested on: promoter region of Ifnγ, Tbx21 and Eomes; assay: pan-H4Ac ChIP at CTL-characteristic loci; assay type: cell-based, mice; details: 24 hours of treatment
Procedure: as §1

mTOR = assay: phosphorylation of mTOR and S6 in human CTLs; assay type: cell-based; details: three days
Procedure: (A and B) CTLs were cultured in medium containing 1.0% FCS and treated with pentanoate (2.5 mM) for three days. Representative histogram plots and bar graphs indicate the phoshorylated levels of mTOR (A) and S6 ribosomal protein (B), respectively (n=3 pooled from three independent experiments). (C and D) Human CTLs were cultured in medium containing 1.0% serum and treated with indicated HDACi for three days. Representative histogram plots and bar graphs indicate the phoshorylated levels of mTOR (C) and S6 ribosomal protein (D), respectively (data points represent four individual healthy donors) (E) Measurement of extracellular acidification rate (ECAR) for in vitro generated murine CTLs cultured with or without 2.5 mM pentanoate for three days. ECAR was measured under basal conditions and in response to glucose (10 mM), oligomycin (2 μM), and 2-deoxy-glucose (2-DG, 100 mM). One of three independent experiments is shown.

CCCCC(=O)O [pentanoate]
tumor volume and weight ([1]; day 10 following administration of pentanoate-treated CAR T cells): significantly diminished
frequency and number of IFN-γ+TNF-α+ CAR T cells in tumors ([1]; vs control CAR T lymphocytes): elevated frequency and number
HDAC activity of CTL-derived cell lysates (HDAC): strong reduction of HDAC activity
TNF-α and IFN-γ production of CAR T cells [2]: enhanced
expression of CD25 on CAR T cells [2]: enhanced
H4 acetylation at the promoter region of Ifnγ, Tbx21 and Eomes [3]: enhance H4 acetylation
phosphorylation level of S6 ribosomal protein (mTOR): elevated the phosphorylation levels
phosphorylation level of mTOR (mTOR): elevated the phosphorylation levels
